From patent publication US10934298B2, “Substituted pyrazolo[1,5-a]pyrimidines for the treatment of medical disorders” (BIAL—BioTech Investments, Inc., priority 2016, dated 2021)

Molecular target: T1, glucocerebrosidase (Gcase) (Homo sapiens, UniProt P04062)
T1 construct: micellar solution containing 10 nM GCase and 100 nM saposin C
T1 sequence (P04062 40-536): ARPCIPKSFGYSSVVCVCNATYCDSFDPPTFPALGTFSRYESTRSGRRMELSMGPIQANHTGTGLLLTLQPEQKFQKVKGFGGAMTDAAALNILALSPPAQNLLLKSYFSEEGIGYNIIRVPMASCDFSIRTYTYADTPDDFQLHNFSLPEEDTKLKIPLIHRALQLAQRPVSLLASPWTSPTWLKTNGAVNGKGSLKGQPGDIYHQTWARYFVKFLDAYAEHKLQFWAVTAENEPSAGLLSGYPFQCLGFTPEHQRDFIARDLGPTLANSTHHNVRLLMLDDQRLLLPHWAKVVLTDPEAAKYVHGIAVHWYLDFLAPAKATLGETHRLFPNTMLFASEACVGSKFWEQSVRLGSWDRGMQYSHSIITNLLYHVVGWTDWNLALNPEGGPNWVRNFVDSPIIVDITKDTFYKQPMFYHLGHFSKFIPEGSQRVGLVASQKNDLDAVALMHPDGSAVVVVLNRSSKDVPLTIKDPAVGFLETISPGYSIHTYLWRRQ
Test: Glucocerebrosidase (Gcase) activation assay with 4-methylumbelliferyl-beta-D-glucopyranoside substrate, saposin C and phosphatidylserine/triton micelles, fluorescence readout
Format: biochemical
Settings: for Percent Gcase Activation, 0.1 μM Test Compound: test compound at 0.1 μM; for Percent Gcase Activation, 1 μM Test Compound: test compound at 1.0 μM
In short: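 Readout is endpoint fluorescence (ex 365, em 440 nm) after glycine pH 12.5 stop of a 15-min room-temperature reaction. Enzyme mix: GCase 10 nM plus saposin C 100 nM in 0.37 mol % PS/0.32 mM triton micelles, pH 4.7, compound pre-incubated 30 min; substrate solution 2 mM before 1:1 mixing. Tested at 1.0/0.1 μM, then 3-fold, 8-point series up to 5 μM.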

Row | Compound | Percent Gcase Activation, 0.1 μM Test Compound | Percent Gcase Activation, 1 μM Test Compound
1 | Cc1cc(-c2cccc3ncoc23)nc2c(C(=O)N[C@H](C)C3CC3)cnn12 [III-218] | * (less than 10% Gcase activation) | ++ (Gcase activation in the range of 30% up to 60%)
2 | Cc1cc(-c2cccc3ncoc23)nc2c(C(=O)NC(C)(C)C(F)(F)F)cnn12 [III-219] | ** (Gcase activation in the range of 10% up to 20%) | ++ (Gcase activation in the range of 30% up to 60%)
3 | Cc1cc(-c2ccc3scnc3c2)nc2c(C(=O)NC(C)C(F)(F)F)cnn12 (centres unmarked) [III-220] | *** (greater than 20% Gcase activation) | +++ (Gcase activation greater than 60%)
4 | Cc1cc(-c2cccc3ncsc23)nc2c(C(=O)NC(C)C(F)(F)F)cnn12 (centres unmarked) [III-221] | *** (greater than 20% Gcase activation) | +++ (Gcase activation greater than 60%)
5 | Cc1cc(-c2cccc3ncsc23)nc2c(C(=O)N[C@@H](C)C3CC3)cnn12 [III-222] | *** (greater than 20% Gcase activation) | +++ (Gcase activation greater than 60%)
6 | Cc1cc(-c2cccc3ncoc23)nc2c(C(=O)NC(C)(C)C3CC3)cnn12 [III-223] | *** (greater than 20% Gcase activation) | +++ (Gcase activation greater than 60%)
7 | CCc1cc(N2CCN(C(C)C)C2=O)nc2c(C(=O)NC(C3CC3)C(F)(F)F)cnn12 (centres unmarked) [III-224] | ** (Gcase activation in the range of 10% up to 20%) | +++ (Gcase activation greater than 60%)
8 | Cc1cc(N2CCN(C(C)C)C2=O)nc2c(C(=O)NC(C3CC3)C(F)(F)F)cnn12 (centres unmarked) [III-225] | ** (Gcase activation in the range of 10% up to 20%) | +++ (Gcase activation greater than 60%)
9 | CCc1cc(N2CCN(C(C)C)C2=O)nc2c(C(=O)NC(C)C(F)(F)F)cnn12 (centres unmarked) [III-226] | * (less than 10% Gcase activation) | ++ (Gcase activation in the range of 30% up to 60%)
10 | Cc1cc(N2CCN(C(C)C)C2=O)nc2c(C(=O)NC(C)C(F)(F)F)cnn12 (centres unmarked) [III-227] | * (less than 10% Gcase activation) | + (less than 30% Gcase activation)
11 | Cc1cc(N2CCNC2=O)nc2c(C(=O)NC(C3CC3)C(F)(F)F)cnn12 (centres unmarked) [III-228] | * (less than 10% Gcase activation) | +++ (Gcase activation greater than 60%)
12 | CCc1cc(N2CCN(C(C)C)C2=O)nc2c(C(=O)NC(C)(C)C)cnn12 [III-229] | * (less than 10% Gcase activation) | ++ (Gcase activation in the range of 30% up to 60%)
13 | Cc1cc(N2CCN(C(C)C)C2=O)nc2c(C(=O)NC(C)(C)C3CC3)cnn12 [III-230] | * (less than 10% Gcase activation) | ++ (Gcase activation in the range of 30% up to 60%)
14 | Cc1cc(N2CCN(C(C)C)C2=O)nc2c(C(=O)NC(C)(C)C(F)(F)F)cnn12 [III-231] | * (less than 10% Gcase activation) | ++ (Gcase activation in the range of 30% up to 60%)
15 | Cc1cc(N2CCN(C(C)C)C2=O)nc2c(C(=O)NC(C)(C)C)cnn12 [III-232] | * (less than 10% Gcase activation) | + (less than 30% Gcase activation)
16 | Cc1cc(N2CCN(CC(F)(F)F)C2=O)nc2c(C(=O)NC(C3CC3)C(F)(F)F)cnn12 (centres unmarked) [III-233] | ** (Gcase activation in the range of 10% up to 20%) | +++ (Gcase activation greater than 60%)
17 | Cc1cc(-c2cccc(Cl)n2)nc2c(C(=O)NC(C)C(F)(F)F)cnn12 (centres unmarked) [III-234] | *** (greater than 20% Gcase activation) | +++ (Gcase activation greater than 60%)
18 | Cc1cc(-c2cccc(Cl)n2)nc2c(C(=O)N[C@H](C)C(F)(F)F)cnn12 [III-235] | ** (Gcase activation in the range of 10% up to 20%) | +++ (Gcase activation greater than 60%)
19 | Cc1cc(-c2cccc(Cl)n2)nc2c(C(=O)N[C@@H](C)C(F)(F)F)cnn12 [III-236] | *** (greater than 20% Gcase activation) | +++ (Gcase activation greater than 60%)
20 | Cc1cc(-c2ccon2)nc2c(C(=O)NC(C3CC3)C(F)(F)F)cnn12 (centres unmarked) [III-239] | ** (Gcase activation in the range of 10% up to 20%) | +++ (Gcase activation greater than 60%)
21 | Cc1ncc(-c2cc(C)n3ncc(C(=O)NC(C4CC4)C(F)(F)F)c3n2)o1 (centres unmarked) [III-246] | ** (Gcase activation in the range of 10% up to 20%) | +++ (Gcase activation greater than 60%)
22 | Cc1nc(-c2cc(C)n3ncc(C(=O)NC(C4CC4)C(F)(F)F)c3n2)co1 (centres unmarked) [III-249] | ** (Gcase activation in the range of 10% up to 20%) | +++ (Gcase activation greater than 60%)
23 | Cc1nc(-c2cc(C)n3ncc(C(=O)NC(C)(C)C4CC4)c3n2)co1 [III-251] | ** (Gcase activation in the range of 10% up to 20%) | +++ (Gcase activation greater than 60%)

Results, then the molecule that gave them:

Row | Percent Gcase Activation, 0.1 μM Test Compound | Percent Gcase Activation, 1 μM Test Compound | Compound
24 | *** (greater than 20% Gcase activation) | +++ (Gcase activation greater than 60%) | Cc1cc(-c2cccc(Cl)n2)nc2c(C(=O)NC(C3CC3)C(F)(F)F)cnn12 (centres unmarked) [III-237]
25 | * (less than 10% Gcase activation) | +++ (Gcase activation greater than 60%) | CCc1cc(N2CCOCC2)nc2c(C(=O)NC(C3CC3)C(F)(F)F)cnn12 (centres unmarked) [III-238]
26 | *** (greater than 20% Gcase activation) | +++ (Gcase activation greater than 60%) | Cc1cc(-c2ccon2)nc2c(C(=O)N[C@H](C3CC3)C(F)(F)F)cnn12 [III-240]
27 | *** (greater than 20% Gcase activation) | +++ (Gcase activation greater than 60%) | Cc1cc(-c2ccon2)nc2c(C(=O)N[C@@H](C3CC3)C(F)(F)F)cnn12 [III-241]
28 | *** (greater than 20% Gcase activation) | +++ (Gcase activation greater than 60%) | Cc1oc(C#N)cc1-c1cc(C)n2ncc(C(=O)NC(C3CC3)C(F)(F)F)c2n1 (centres unmarked) [III-242]
29 | *** (greater than 20% Gcase activation) | +++ (Gcase activation greater than 60%) | Cc1oc(C#N)cc1-c1cc(C)n2ncc(C(=O)N[C@H](C3CC3)C(F)(F)F)c2n1 [III-243]
30 | *** (greater than 20% Gcase activation) | +++ (Gcase activation greater than 60%) | Cc1oc(C#N)cc1-c1cc(C)n2ncc(C(=O)N[C@@H](C3CC3)C(F)(F)F)c2n1 [III-244]
31 | * (less than 10% Gcase activation) | + (less than 30% Gcase activation) | Cc1cc(C#N)c(-c2cc(C)n3ncc(C(=O)NC(C4CC4)C(F)(F)F)c3n2)o1 (centres unmarked) [III-245]
32 | *** (greater than 20% Gcase activation) | +++ (Gcase activation greater than 60%) | Cc1ncc(-c2cc(C)n3ncc(C(=O)N[C@H](C4CC4)C(F)(F)F)c3n2)o1 [III-247]
33 | *** (greater than 20% Gcase activation) | +++ (Gcase activation greater than 60%) | Cc1ncc(-c2cc(C)n3ncc(C(=O)N[C@@H](C4CC4)C(F)(F)F)c3n2)o1 [III-248]
34 | *** (greater than 20% Gcase activation) | +++ (Gcase activation greater than 60%) | Cc1cc(-c2occc2C#N)nc2c(C(=O)NC(C3CC3)C(F)(F)F)cnn12 (centres unmarked) [III-250]
35 | * (less than 10% Gcase activation) | +++ (Gcase activation greater than 60%) | Cc1ncc(-c2cc(C)n3ncc(C(=O)NC(C)(C)C4CC4)c3n2)o1 [III-252]
36 | *** (greater than 20% Gcase activation) | +++ (Gcase activation greater than 60%) | Cc1cnc(-c2cc(C)n3ncc(C(=O)NC(C4CC4)C(F)(F)F)c3n2)o1 (centres unmarked) [III-253]
37 | *** (greater than 20% Gcase activation) | +++ (Gcase activation greater than 60%) | Cc1coc(-c2cc(C)n3ncc(C(=O)NC(C4CC4)C(F)(F)F)c3n2)n1 (centres unmarked) [III-254]
